Test results: ChEMBL document CHEMBL1201862, “PubChem BioAssay data set” (2004)
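96-well plates; 48 h exposure; 5 concentrations. Endpoints by linear interpolation between flanking doses. Not reached: highest tested concentration assigned. GI50: concentration for 50% inhibition of growth.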 The source made the active and inactive calls. No stated cut-off is given here; in the data, active = GI50 up to about 1.1 µM and inactive = higher.

Legend:
Assay in all cases: NCI tumour cell line growth inhibition, 48 h
MCF7 = test system: MCF7
OVCAR-4 = test system: OVCAR-4
SF-295 = test system: SF-295
TK-10 = test system: TK-10
U-251 = test system: U-251
SNB-75 = test system: SNB-75
A549 = test system: A549
SF-268 = test system: SF-268
PC-3 = test system: PC-3
ACHN = test system: ACHN
MOLT-4 = test system: MOLT-4
NCI-H522 = test system: NCI-H522
SK-MEL-28 = test system: SK-MEL-28
LOX IMVI = test system: LOX IMVI
SW-620 = test system: SW-620
Malme-3M = test system: Malme-3M
HCT-15 = test system: HCT-15
UACC-257 = test system: UACC-257
HOP-62 = test system: HOP-62
UO-31 = test system: UO-31
NCI/ADR-RES = test system: NCI/ADR-RES
BT-549 = test system: BT-549
786-0 = test system: 786-0
OVCAR-3 = test system: OVCAR-3
IGROV-1 = test system: IGROV-1
SK-MEL-2 = test system: SK-MEL-2
SF-539 = test system: SF-539
HL-60 = test system: HL-60
KM12 = test system: KM12
HT-29 = test system: HT-29
EKVX = test system: EKVX
HCT-116 = test system: HCT-116
NCI-H23 = test system: NCI-H23
A498 = test system: A498
M14 = test system: M14
UACC-62 = test system: UACC-62
HCC 2998 = test system: HCC 2998
Hs-578T = test system: Hs-578T
NCI-H460 = test system: NCI-H460
HOP-92 = test system: HOP-92
CCRF-CEM = test system: CCRF-CEM
OVCAR-8 = test system: OVCAR-8
OVCAR-5 = test system: OVCAR-5
MDA-MB-231 = test system: MDA-MB-231
SN12C = test system: SN12C
MDA-MB-435 = test system: MDA-MB-435
CAKI-1 = test system: CAKI-1
MDA-N = test system: MDA-N
RPMI-8226 = test system: RPMI-8226
SNB-19 = test system: SNB-19

Question: With `CC(=O)NC1C(CO)O[C@@H]2OC(C)(C)O[C@H]12` (stereo not given in full) as the compound, how does the GI50 (MCF7) read?
Answer: > 100 µM (inactive)

Question: What about the GI50 (OVCAR-4) of the same compound?
Answer: > 100 µM (inactive)

Question: And the GI50 (SF-295)?
Answer: > 100 µM (inactive)

Question: And the GI50 (TK-10)?
Answer: > 100 µM (inactive)

Question: What about the GI50 (U-251) of the same compound?
Answer: > 100 µM (inactive)

Question: What about the GI50 (SNB-75) of the same compound?
Answer: > 100 µM (inactive)

Question: And the GI50 (A549)?
Answer: > 100 µM (inactive)

Question: And the GI50 (SF-268)?
Answer: > 100 µM (inactive)

Question: What about the GI50 (PC-3) of the same compound?
Answer: > 100 µM (inactive)

Question: And the GI50 (ACHN)?
Answer: > 100 µM (inactive)

Question: What about the GI50 (MOLT-4) of the same compound?
Answer: > 100 µM (inactive)

Question: What about the GI50 (NCI-H522) of the same compound?
Answer: > 100 µM (inactive)

Question: What about the GI50 (SK-MEL-28) of the same compound?
Answer: > 100 µM (inactive)

Question: What about the GI50 (LOX IMVI) of the same compound?
Answer: > 100 µM (inactive)

Question: And the GI50 (SW-620)?
Answer: > 100 µM (inactive)

Question: And the GI50 (Malme-3M)?
Answer: > 100 µM (inactive)

Question: What about the GI50 (HCT-15) of the same compound?
Answer: > 100 µM

Question: And the GI50 (UACC-257)?
Answer: > 100 µM (inactive)

Question: What about the GI50 (HOP-62) of the same compound?
Answer: > 100 µM (inactive)

Question: And the GI50 (UO-31)?
Answer: > 100 µM (inactive)

Question: What about the GI50 (NCI/ADR-RES) of the same compound?
Answer: > 100 µM (inactive)

Question: And the GI50 (BT-549)?
Answer: > 100 µM (inactive)

Question: What about the GI50 (786-0) of the same compound?
Answer: > 100 µM (inactive)

Question: What about the GI50 (OVCAR-3) of the same compound?
Answer: > 100 µM (inactive)

Question: And the GI50 (IGROV-1)?
Answer: > 100 µM (inactive)

Question: What about the GI50 (SK-MEL-2) of the same compound?
Answer: > 100 µM (inactive)

Question: And the GI50 (SF-539)?
Answer: > 100 µM (inactive)

Question: And the GI50 (HL-60)?
Answer: > 100 µM (inactive)

Question: What about the GI50 (KM12) of the same compound?
Answer: > 100 µM (inactive)

Question: What about the GI50 (HT-29) of the same compound?
Answer: > 100 µM (inactive)

Question: What about the GI50 (EKVX) of the same compound?
Answer: > 100 µM (inactive)

Question: What about the GI50 (HCT-116) of the same compound?
Answer: > 100 µM (inactive)

Question: What about the GI50 (NCI-H23) of the same compound?
Answer: > 100 µM (inactive)

Question: What about the GI50 (A498) of the same compound?
Answer: > 100 µM (inactive)

Question: What about the GI50 (M14) of the same compound?
Answer: > 100 µM (inactive)

Question: What about the GI50 (UACC-62) of the same compound?
Answer: > 100 µM (inactive)

Question: And the GI50 (HCC 2998)?
Answer: > 100 µM (inactive)

Question: What about the GI50 (Hs-578T) of the same compound?
Answer: > 100 µM (inactive)

Question: And the GI50 (NCI-H460)?
Answer: > 100 µM (inactive)

Question: What about the GI50 (HOP-92) of the same compound?
Answer: > 100 µM (inactive)

Question: And the GI50 (CCRF-CEM)?
Answer: > 100 µM (inactive)

Question: What about the GI50 (OVCAR-8) of the same compound?
Answer: > 100 µM (inactive)

Question: What about the GI50 (OVCAR-5) of the same compound?
Answer: > 100 µM (inactive)

Question: And the GI50 (MDA-MB-231)?
Answer: > 100 µM (inactive)

Question: What about the GI50 (SN12C) of the same compound?
Answer: > 100 µM (inactive)

Question: What about the GI50 (MDA-MB-435) of the same compound?
Answer: > 100 µM (inactive)

Question: And the GI50 (CAKI-1)?
Answer: > 100 µM (inactive)

Question: And the GI50 (MDA-N)?
Answer: > 100 µM (inactive)

Question: And the GI50 (RPMI-8226)?
Answer: > 100 µM (inactive)

Question: And the GI50 (SNB-19)?
Answer: > 100 µM (inactive)
